Experiments:
Test in all cases: Bliss excess, mean over the matrix (fraction); higher = more synergy
[1] = tested on: DBTRG-05MG (Glioblastoma)
Procedure, shortened: (§1)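 Cell lines grown in DMEM/F12 or RPMI with 10% FBS were plated in 1536-well plates and held 24 hours at 37°C, 5% CO2 before 72 hours of exposure to two-drug dose matrices, with DMSO typically at 0.2%. CellTiter-Glo 2.0 luminescence gave viability, which was converted to inhibition. Vehicle wells were set to 0 and blank wells to 1. Combination Emax is the second-highest inhibition in the matrix, and Bliss excess is the observed combination effect minus the expected EA + EB − EA·EB, where EA and EB are the single-agent effects.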

GAK (Melanoma) = tested on: GAK (Melanoma)
Procedure, shortened: as §1

[2] = tested on: HT-1080 (Other Solid Carcinomas)
Procedure, shortened: as §1

IST-MEL1 (Melanoma) = tested on: IST-MEL1 (Melanoma)
Procedure, shortened: as §1

[3] = tested on: LCLC-103H (Non-Small Cell Lung Carcinoma)
Procedure, shortened: as §1

[4] = tested on: MDA-MB-415 (Breast Carcinoma)
Procedure, shortened: as §1

[5] = tested on: MM1S (Plasma Cell Myeloma)
Procedure, shortened: as §1

[6] = tested on: MOLP-8 (Plasma Cell Myeloma)
Procedure, shortened: as §1

[7] = tested on: MS-1 (Small Cell Lung Carcinoma)
Procedure, shortened: as §1

[8] = tested on: NAMALWA (Burkitt's Lymphoma)
Procedure, shortened: as §1

NB1 (Neuroblastoma) = tested on: NB1 (Neuroblastoma)
Procedure, shortened: as §1

[9] = tested on: NCI-H1341 (Small Cell Lung Carcinoma)
Procedure, shortened: as §1

NCI-H2373 (Mesothelioma) = tested on: NCI-H2373 (Mesothelioma)
Procedure, shortened: as §1

[10] = tested on: NMC-G1 (Low Grade Glioma)
Procedure, shortened: as §1

[11] = tested on: PA-TU-8988T (Pancreatic Carcinoma)
Procedure, shortened: as §1

[12] = tested on: PL4 (Pancreatic Carcinoma)
Procedure, shortened: as §1

SK-N-SH (Neuroblastoma) = tested on: SK-N-SH (Neuroblastoma)
Procedure, shortened: as §1

T47D (Breast Carcinoma) = tested on: T47D (Breast Carcinoma)
Procedure, shortened: as §1

UACC-257 (Melanoma) = tested on: UACC-257 (Melanoma)
Procedure, shortened: as §1

WM35 (Melanoma) = tested on: WM35 (Melanoma)
Procedure, shortened: as §1

| SMILES | Bliss excess [1] | Bliss excess (GAK (Melanoma)) | Bliss excess [2] | Bliss excess (IST-MEL1 (Melanoma)) | Bliss excess [3] | Bliss excess [4] | Bliss excess [5] | Bliss excess [6] | Bliss excess [7] | Bliss excess [8] | Bliss excess (NB1 (Neuroblastoma)) | Bliss excess [9] | Bliss excess (NCI-H2373 (Mesothelioma)) | Bliss excess [10] | Bliss excess [11] | Bliss excess [12] | Bliss excess (SK-N-SH (Neuroblastoma)) | Bliss excess (T47D (Breast Carcinoma)) | Bliss excess (UACC-257 (Melanoma)) | Bliss excess (WM35 (Melanoma)) |
| --- | --- | --- | --- | --- | --- | --- | --- | --- | --- | --- | --- | --- | --- | --- | --- | --- | --- | --- | --- | --- |
| CC1(C)CCC(CN2CCN(c3ccc(C(=O)NS(=O)(=O)c4ccc(NCC5CCOCC5)c([N+](=O)[O-])c4)c(Oc4cnc5[nH]ccc5c4)c3)CC2)=C(c2ccc(Cl)cc2)C1 [Venetoclax] + C[C@@H]1COCCN1C2=NC(=NC(=C2)C3(CC3)[S@](=N)(=O)C)C4=C5C=CNC5=NC=C4 [AZD6738] (first compound max 1 µM, 7x7, partner max 10 µM) | 0.0023 | -0.0586 | -0.0253 | -0.019 | -0.0085 | -0.0584 | 0.0444 | -0.0193 | 0.0066 | -0.0029 | -0.0444 | 0.0142 | -0.0052 | -0.0032 | 0.0107 | -0.0918 | -0.0671 | -0.0634 | -0.0092 | 0.023 |
| CCN(CCO)CCCOc1ccc2c(Nc3cc(CC(=O)Nc4cccc(F)c4)[nH]n3)ncnc2c1 [AZD2811] + C[C@@H]1COCCN1C2=NC(=NC(=C2)C3(CC3)[S@](=N)(=O)C)C4=C5C=CNC5=NC=C4 [AZD6738] (first compound max 1 µM, 7x7, partner max 10 µM) | -0.0657 | -0.056 | -0.0375 | -0.0456 | -0.119 | -0.0438 | 0.0151 | -0.028 | -0.0585 | 0.0394 | -0.0802 | 0.0028 | -0.0139 | -0.117 | 0.0002 | -0.0171 | -0.0358 | -0.0493 | -0.0649 | -0.0306 |
| CN(CCO)CC[C@H](CSc1ccccc1)Nc1ccc(S(=O)(=O)NC(=O)c2ccc(N3CCC([C@@H](O)c4ccccc4-c4ccc(Cl)cc4)CC3)cc2)cc1S(=O)(=O)C(F)(F)F [AZD4320] + Cn1cnc2c(F)c(Nc3ccc(Br)cc3Cl)c(C(=O)NOCCO)cc21 [Selumetinib] (first compound max 1 µM, 7x7, partner max 3 µM) | 0.0074 | 0.0028 | -0.0965 | -0.072 | 0.0112 | -0.0181 | 0.0799 | 0.0614 | 0.0229 | 0.0105 | 0.0308 | 0.0615 | 0.0263 | -0.0624 | 0.0561 | 0.0473 | 0.0457 | 0.0231 | 0.0815 | 0.154 |
| C=CCn1c(=O)c2cnc(Nc3ccc(N4CCN(C)CC4)cc3)nc2n1-c1cccc(C(C)(C)O)n1 [AZD1775] + O=C(c1cc(Cc2n[nH]c(=O)c3ccccc23)ccc1F)N1CCN(C(=O)C2CC2)CC1 [Olaparib] (first compound max 1 µM, partner max 10 µM) | -0.0747 | -0.0243 | -0.0327 | -0.0596 | -0.0334 | -0.0482 | -0.0321 | -0.0294 | -0.0094 | -0.0133 | -0.0795 | -0.0236 | -0.013 | -0.0352 | -0.0094 | 0.0037 | -0.0947 | -0.0095 | -0.0197 | -0.0146 |
| CCc1c2c(nc3ccc(O)cc13)-c1cc3c(c(=O)n1C2)COC(=O)[C@]3(O)CC [SN-38] + CN(C)CCCOc1ccc(-c2ccc3ncc4c(c3c2)n(C2CCOCC2)c(=O)n4C)cn1 [AZD0156] (first compound max 0.3 µM, 7x7, partner max 1 µM) | -0.019 | 0.0182 | 0.0132 | -0.0785 | 0.0263 | -0.0262 | -0.0498 | -0.142 | -0.0384 | 0.0402 | -0.0476 | -0.0226 | -0.0037 | -0.0202 | 0.0755 | 0.0253 | -0.104 | -0.0023 | 0.0023 | 0.0082 |
| COc1cccc2c1C(=O)c1c(O)c3c(c(O)c1C2=O)C[C@@](O)(C(=O)CO)C[C@@H]3O[C@H]1C[C@H](N)[C@H](O)[C@H](C)O1 [Doxorubicin] + Cc1cc2ncnn2cc1Nc1ncc2c(n1)n(C1CCOCC1)c(=O)n2C [AZD7648] (first compound max 1 µM, 7x7, partner max 10 µM) | 0.0225 | 0.0711 | 0.108 | 0.0511 | 0.0261 | -0.039 | 0.0891 | 0.0396 | 0.0686 | 0.0765 | 0.0581 | 0.0628 | 0.0433 | -0.0029 | 0.0582 | 0.0391 | 0.0605 | -0.0004 | -0.0059 | 0.0285 |
| CN(CCO)CC[C@H](CSc1ccccc1)Nc1ccc(S(=O)(=O)NC(=O)c2ccc(N3CCC([C@@H](O)c4ccccc4-c4ccc(Cl)cc4)CC3)cc2)cc1S(=O)(=O)C(F)(F)F [AZD4320] + Cc1cc2ncnn2cc1Nc1ncc2c(n1)n(C1CCOCC1)c(=O)n2C [AZD7648] (first compound max 1 µM, 7x7, partner max 10 µM) | -0.0015 | 0.0066 | -0.0757 | -0.0465 | -0.0303 | -0.0243 | 0.0657 | -0.0125 | -0.0409 | 0.0013 | -0.0148 | 0.0254 | -0.0389 | -0.0452 | -0.043 | -0.0631 | 0.0283 | -0.0255 | -0.0351 | -0.0122 |

Source: the supplement of paper PMC11061612
